According to patent publication US4396550A, “Dibenz [b,e] oxepin derivatives” (Kyowa Hakko Kogyo Co., Ltd., priority 1980, dated 1983):

What was measured:
[1] = test system: isolated ileum of guinea-pig; assay: Test for antihistaminergic effects on the isolated ileum of guinea-pig (histamine contraction, in vitro); parameters: species or system guinea-pig (male Hartly-strain); details: Cavia porcellus, 0.05 h; depressing ratio of 80% or more of histamine contraction; read-out: Antihistaminergic activity: MED
Method: (§1) Male Hartly-strain guinea-pigs weighing about 250 g are killed and the abdomen is opened. The part (2-3 cm in length) of the ileum 10 cm away from the caecum to the pylorus is cut off as a preparation. The preparation is suspended with serre-fine in a Magnus bath containing 10 ml of Tyrode's solution at 32±1° C. under an air bubble. The contraction of the ileum is recorded on Kymograph through hebel when 0.1 ml of acetylcholine at a concentration of 10^-3 g/ml is added to the Tyrode's solution.
(§2) On the other hand, 3 minutes after administration of the test compounds, the same procedure as mentioned above is carried out to record the contraction.
In this test, 0.1 ml of histamine at a concentration of 5×10^-3 g/l is used.

[2] = test system: isolated ileum of guinea-pig; assay: Test for anticholinergic effects on the isolated ileum of guinea-pig (acetylcholine contraction, in vitro); parameters: species or system guinea-pig (male Hartly-strain); details: Cavia porcellus, 0.05 h; depressing ratio of 80% or more of acetylcholine contraction; compound 3 minutes before; read-out: Anticholinergic activity: MED (minimum effective dose)
Method: as §1, §2

[3] = test system: blood platelets (platelet-rich plasma); assay: Test for the inhibition of platelet aggregation (collagen-induced, platelet-rich plasma); type: cell-based, male white rabbits; details: Oryctolagus cuniculus, Platelet, 0.05 h; depressing ratio of 50% of collagen-induced aggregation; compound 3 minutes before; read-out: Antiplatelet aggregation activity: MED
Method: In this test, 9 vols. of blood are sampled from the caroted artery of male white rabbits weighing 2 to 2.5 kg and placed in a silicon-coated flask containing 1 vol. of 3.8% sodium citrate. The thus obtained blood is centrifuged at 1,000 rpm for 15 minutes to obtain platelet-rich plasma. The aggregation of the blood platelets is observed using an aggregometer, when collagen is added to the platelet-rich plasma to the extent of the final concentration that 50% of platelet aggregation is caused in the presence of 100 γ/ml of aspirin. On the other hand, 3 minutes after administration of the test compounds to the platelet-rich plasma, the same procedure as mentioned above is carried out to observe the aggregation of blood platelet. The test compounds showing a depressing ratio of 50%, compared with the inhibition of aggregation by collagen alone, are concluded to have antiplatelet aggregation activity.

male dd-strain rats = assay: Acute toxicity test (minimum lethal dose); type: in vivo; details: mortality for 7 days
Method: Groups of male dd-strain rats (each group consisting of five rats) weighing 20±1 g were used. The compounds of the present invention were administered orally (po: 0.3 mg/g) or intraperitoneally (ip: 0.1 mg/g). The MLD (minimum lethal dose) was calculated from the mortality for 7 days after the administration to obtain the results given in Table 1.

Structure (SMILES) | minimal effective concentration [1] [µg/mL] | minimal effective concentration [2] [µg/mL] | minimal effective concentration [3] [µg/mL] | Acute toxicity: MLD (minimum lethal dose) (male dd-strain rats; ip) [mg/kg] | Acute toxicity: MLD (minimum lethal dose) (male dd-strain rats; po) [mg/kg]
CCc1ccc2c(c1)C(NCCCN(CC)CC)c1ccccc1CO2 (centres unmarked) [Compound 2, 2-ethyl-11-{3-(diethylamino)propyl}amino-6,11-dihydrodibenz[b,e]oxepin] | 1 | 10 | 1 | 100 | 300
CCN(CC)CCCNC1c2ccccc2COc2ccc(F)cc21 (centres unmarked) [Compound 3, 2-fluoro-11-{3-(diethylamino)propyl}amino-6,11-dihydrodibenz[b,e]oxepin] | 10 | 10 | 20 | > 100 | > 300
CCN(CC)CCCNC1c2ccccc2COc2ccc(OC)cc21 (centres unmarked) [Compound 7, 2-methoxy-11-{3-(diethylamino)propyl}amino-6,11-dihydrodibenz[b,e]oxepin] | 0.3 | 0.3 | – | 100 | > 300
CCN(CC)CCNC1c2ccccc2COc2c(C)cccc21 (centres unmarked) [Compound 12, 4-methyl-11-{2-(diethylamino)ethyl}amino-6,11-dihydrodibenz[b,e]oxepin] | – | – | 10 | 100 | > 300
Cc1ccc2c(c1)C(NN1CCN(C)CC1)c1ccccc1CO2 (centres unmarked) [Compound 29, 2-methyl-11-(4-methyl-1-piperazinyl)amino-6,11-dihydrodibenz[b,e]oxepin] | 10 | – | 50 | > 100 | > 300
Fc1ccc2c(c1)C(NCC1COc3ccccc3O1)c1ccccc1CO2 (centres unmarked) [Compound 30, 2-fluoro-11-{(1,4-benzodioxane-2-)methyl}amino-6,11-dihydrodibenz[b,e]oxepin] | 10 | 10 | – | > 100 | > 300
Fc1ccc(C(NC2c3ccccc3COc3ccc(F)cc32)c2ccc(F)cc2)cc1 (centres unmarked) [Compound 31, 2-fluoro-11-{bis-(4-fluorophenyl)methyl}amino-6,11-dihydrodibenz[b,e]oxepin] | – | – | 100 | > 100 | > 300
CC(CCc1ccccc1)NC1c2ccccc2COc2ccc(F)cc21 (centres unmarked) [Compound 32, 2-fluoro-11-{(1-methyl-3-phenyl)propyl}amino-6,11-dihydrodibenz[b,e]oxepin] | – | 3 | – | > 100 | > 300
Fc1ccc2c(c1)C(NCCOC(c1ccccc1)c1ccccc1)c1ccccc1CO2 (centres unmarked) [Compound 33, 2-fluoro-11-{2-(diphenylmethyloxy)ethyl}amino-6,11-dihydrodibenz[b,e]oxepin] | – | – | 100 | > 100 | > 300
Fc1ccc2c(c1)C(NCCN(Cc1ccccc1)Cc1ccccc1)c1ccccc1CO2 (centres unmarked) [Compound 34, 2-fluoro-11-{2-(dibenzylamino)ethyl}amino-6,11-dihydrodibenz[b,e]oxepin] | 10 | – | – | > 100 | 300
Cc1cccc2c1OCc1ccccc1C2N1CCN(CCO)CC1 (centres unmarked) [Compound 41, 4-methyl-11-{4-(2-hydroxyethyl)-1-piperazinyl}-6,11-dihydrodibenz[b,e]oxepin] | – | – | 100 | > 100 | > 300
OCCN1CCN(C2c3ccccc3COc3c(-c4ccccc4)cccc32)CC1 (centres unmarked) [Compound 42, 4-phenyl-11-{4-(2-hydroxyethyl)-1-piperazinyl}-6,11-dihydrodibenz[b,e]oxepin] | – | – | 100 | > 100 | > 300
Fc1ccc(C(c2ccc(F)cc2)N2CCN(C3c4ccccc4COc4ccc(F)cc43)CC2)cc1 (centres unmarked) [Compound 43, 2-fluoro-11-[4-{bis-(4-fluorophenyl)}methyl-1-piperazinyl]-6,11-dihydrodibenz[b,e]oxepin] | – | – | 100 | > 100 | > 300
Cc1ccc2c(c1)C(N1CCN(CCN)CC1)c1ccccc1CO2 (centres unmarked) [Compound 44, 2-methyl-11-{4-(2-aminoethyl)-1-piperazinyl}-6,11-dihydrodibenz[b,e]oxepin] | 10 | 10 | – | 100 | > 300
NCCN1CCN(C2c3ccccc3COc3ccc(F)cc32)CC1 (centres unmarked) [Compound 46, 2-fluoro-11-{4-(2-aminoethyl)-1-piperazinyl}-6,11-dihydrodibenz[b,e]oxepin] | 1 | – | 50 | > 100 | > 300
c1ccc2c(c1)COc1ccc(C3CCCCC3)cc1C2NC1CN2CCC1CC2 (centres unmarked) [Compound 54, 2-cyclohexyl-11-(3-quinuclidinyl)amino-6,11-dihydrodibenz[b,e]oxepin] | 1 | 10 | – | 100 | > 300
COc1ccc(CCNC2c3ccccc3COc3ccc(F)cc32)cc1OC (centres unmarked) [Compound 60, 2-fluoro-11-{2-(3,4-dimethoxyphenyl)ethyl}amino-6,11-dihydrodibenz[b,e]oxepin] | 10 | – | – | > 100 | > 300
CCc1ccc2c(c1)C(Nc1cccc3ncccc13)c1ccccc1CO2 (centres unmarked) [Compound 61, 2-ethyl-11-(5-quinolyl)amino-6,11-dihydrodibenz[b,e]oxepin] | 10 | – | – | > 100 | > 300
Cc1ccc2c(c1)C(Nc1ccc3[nH]ccc3c1)c1ccccc1CO2 (centres unmarked) [Compound 62, 2-methyl-11-(5-indolyl)amino-6,11-dihydrodibenz[b,e]oxepin] | – | – | 50 | > 100 | > 300
CCN(CCN(C)C)C1c2ccccc2COc2ccc(C)cc21 (centres unmarked) [Compound 64, 2-methyl-11-[N-{2-(dimethylamino)ethyl}-N-ethyl]amino-6,11-dihydrodibenz[b,e]oxepin] | 10 | 10 | – | > 100 | > 300
Cc1ccc2c(c1)C(N1CCC3(CC1)OCCO3)c1ccccc1CO2 (centres unmarked) [Compound 65, 2-methyl-11-(1',3'-dioxoran-2-'spiro-4-piperidino)-6,11-dihydrodibenz[b,e]oxepin] | 10 | – | – | > 100 | > 300
